Patent US20260008746A1, “CATIONIC LIPID COMPOUND WITH HIGH EFFICIENCY, LOW TOXICITY AND STABLE EXPRESSION, AND COMPOSITION COMPRISNG SAME” (HANGZHOU TIANLONG PHARMACEUTICAL CO., LTD, priority 2023, published 2026)
One block for each compound: values may come before it.

What was measured:
[1] = Determination of particle size and polydispersity index (PDI) of lipid nanoparticles by dynamic light scattering; type: physicochemical; settings: LNP formulation of named cationic lipid/DSPC/cholesterol/DMG-PEG2000 49:10:39.5:1.5; for Particle size (nm): 90° scattering angle, 25° C
Summary of the method: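 LNPs of cationic lipid/DSPC/cholesterol/DMG-PEG2000 (49:10:39.5:1.5 mol%), lipid:mRNA 15:1 w/w, carrying eGFP or Fluc mRNA, made by ethanol injection into citrate buffer pH 4–5, sonicated, PBS-exchanged by ultrafiltration. Size and PDI by dynamic light scattering after dilution in RNase-free water, 90° angle, 25 °C, triplicate.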

293T cells [2] = assay: Fluorescent detection of Fluc-mRNA (cell transfection efficiency of LNP formulations); type: cell-based; settings: for Relative light unit (RLU): LNP formulation containing 0.3 μg Fluc-mRNA, 96-well plate, 24 hours; for Ratio relative to SM-102: RLU of named substance / RLU of SM-102
Summary of the method: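 293T cells seeded at 10,000 per well, cultured overnight, then given LNP carrying 0.3 μg Fluc-mRNA (cationic:neutral:structured:PEG-lipid 49:10:39.5:1.5 molar). Incubated 24 h. Luciferase signal read with kit reagent on an IVIS imaging system.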

293T cells [3] = assay: Cell survival rate determination (CCK-8); type: cell-based; settings: for Cell survival rate (%): LNP formulation containing 1.5 μg Fluc-mRNA, 24 hours, CCK-8, absorbance at 450 nm; for cell survival rate lower than that of YK-101: cell survival rate of YK-101 minus that of named substance; for cell survival rate lower than that of YK-107: cell survival rate of YK-107 minus that of named substance; for cell survival rate lower than that of YK-108: cell survival rate of YK-108 minus that of named substance
Summary of the method: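 293T cells were seeded overnight at 10,000 cells/well in 96-well plates, then exposed for 24 h to LNP containing 1.5 μg Fluc-mRNA (cationic:neutral:structural:polymer-conjugated lipid, 49:10:39.5:1.5 molar) or to Lipofectamine 3000. Viability was read by CCK-8, 1 h incubation, absorbance 450 nm.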

BALB/C mice = assay: In vivo imaging of Fluc-mRNA expression in mice delivered by LNP formulations; settings: for average radiation intensity, 6 h / average radiation intensity, 24 h / average radiation intensity, 48 h / average radiation intensity, 7 d: LNP containing 10 pg Fluc-mRNA, intramuscular, female BALB/C mice
Summary of the method: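 Female BALB/C mice (4-6 weeks, 17-19 g) received LNP carrying […] Fluc-mRNA intramuscularly. Substrate was given intraperitoneally at 6 h, 24 h, 48 h and 7 d, and average radiance was imaged by IVIS 5 min later.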

[4] = highest multiple, time point not stated

PDI(%) [1]: 28.2%
Particle size (nm) [1]: 205 nm
Structure (SMILES): CCCCCCCCCC(=O)OCCCCN(CCO)CCCCCC(=O)OCCC(CCCCCC)CCCCCC [YK-109]
Relative light unit (RLU) (293T cells [2]): 717431 RLU
Ratio relative to SM-102 (293T cells [2]): 0.47
difference from SM-102 in Fluc-mRNA fluorescence (GraphPad Prism analysis) (293T cells [2]; statistical comparison with SM-102): no significant difference
Cell survival rate (%) (293T cells [3]): 69.45%
cell survival rate lower than that of YK-101 (293T cells [3]): 20.67%
cell survival rate lower than that of YK-107 (293T cells [3]): 21.00%
cell survival rate lower than that of YK-108 (293T cells [3]): 20.41%
average radiation intensity of YK-101, times that of named substance (BALB/C mice; 6 h): 2.4 times
average radiation intensity of YK-107, times that of named substance (BALB/C mice; 6 h): 2.6 times
average radiation intensity of YK-108, times that of named substance (BALB/C mice; 6 h): 3.2 times
average radiation intensity of YK-101, times that of named substance (BALB/C mice; 24 h): 11.2 times
average radiation intensity of YK-107, times that of named substance (BALB/C mice; 24 h): 13.8 times
average radiation intensity of YK-108, times that of named substance (BALB/C mice; 24 h): 14.8 times
average radiation intensity of YK-101, times that of named substance (BALB/C mice; 48 h): 10.1 times
average radiation intensity of YK-107, times that of named substance (BALB/C mice; 48 h): 12.2 times
average radiation intensity of YK-108, times that of named substance (BALB/C mice; 48 h): 12.5 times
average radiation intensity of YK-101, times that of named substance (BALB/C mice; 7 d): 2.5 times
average radiation intensity of YK-107, times that of named substance (BALB/C mice; 7 d): 2.7 times
average radiation intensity of YK-108, times that of named substance (BALB/C mice; 7 d): 2.9 times
average radiation intensity, 6 h (BALB/C mice; 6 h): 625040
average radiation intensity, 24 h (BALB/C mice; 24 h): 94720
average radiation intensity, 48 h (BALB/C mice; 48 h): 18496
average radiation intensity, 7 d (BALB/C mice; 7 d): 4948
expression amount of mRNA in mice of YK-101, times that of named substance (BALB/C mice; [4]): up to 11 times
expression amount of mRNA in mice of YK-107, times that of named substance (BALB/C mice; [4]): ≤ 13 times

PDI(%) [1]: 17.4%
Particle size (nm) [1]: 142 nm
Structure (SMILES): CCCCCCCCCCCOC(=O)CCCCCN(CCO)CCCCCCCC(=O)OC(CCCCCCCC)CCCCCCCC [SM-102, reference compound]
Relative light unit (RLU) (293T cells [2]): 1534210 RLU
Multiples (YK-101) (293T cells [2]; RLU of YK-101 / RLU of named substance): 13.25
Multiples (YK-107) (293T cells [2]; RLU of YK-107 / RLU of named substance): 14.58
Multiples (YK-108) (293T cells [2]; RLU of YK-108 / RLU of named substance): 16.07
Ratio relative to SM-102 (293T cells [2]): 1.00
Cell survival rate (%) (293T cells [3]): 68.17%
cell survival rate lower than that of YK-101 (293T cells [3]): 21.95%
cell survival rate lower than that of YK-107 (293T cells [3]): 22.28%
cell survival rate lower than that of YK-108 (293T cells [3]): 21.69%
average radiation intensity of YK-101, times that of named substance (BALB/C mice; 6 h): 2.2 times
average radiation intensity of YK-107, times that of named substance (BALB/C mice; 6 h): 2.3 times
average radiation intensity of YK-108, times that of named substance (BALB/C mice; 6 h): 2.9 times
average radiation intensity of YK-101, times that of named substance (BALB/C mice; 24 h): 9.0 times
average radiation intensity of YK-107, times that of named substance (BALB/C mice; 24 h): 11.1 times
average radiation intensity of YK-108, times that of named substance (BALB/C mice; 24 h): 11.9 times
average radiation intensity of YK-101, times that of named substance (BALB/C mice; 48 h): 5.8 times
average radiation intensity of YK-107, times that of named substance (BALB/C mice; 48 h): 7.1 times
average radiation intensity of YK-108, times that of named substance (BALB/C mice; 48 h): 7.2 times
average radiation intensity of YK-101, times that of named substance (BALB/C mice; 7 d): 2.1 times
average radiation intensity of YK-107, times that of named substance (BALB/C mice; 7 d): 2.3 times
average radiation intensity of YK-108, times that of named substance (BALB/C mice; 7 d): 2.4 times
average radiation intensity, 6 h (BALB/C mice; 6 h): 689570
average radiation intensity, 24 h (BALB/C mice; 24 h): 117750
average radiation intensity, 48 h (BALB/C mice; 48 h): 31900
average radiation intensity, 7 d (BALB/C mice; 7 d): 5834
expression amount of mRNA in mice of YK-108, times that of named substance (BALB/C mice; [4]): up to 11 times
